Assay results reported in patent publication US20050112573A1, “Method of detecting toxic substance” (priority 2001, published 2005).

System: yeast genes (level of expressed mRNA)
Assay: DNA chip analysis of expressed mRNA of yeast genes after 2 h culture with a toxic chemical substance
Type: cell-based, Saccharomyces cerevisiae S288C
Procedure: Yeast (Saccharomyces cerevtisiae S288C (α SUC2mal mel gap2 CUP1)) were cultured at 25° C. on YPD medium (yeast extract 1%, polypepton 2%, glucose 2%). One of toxic chemical substances was added to the cell at logarithmic growth phase, and the cell was further cultured for two hours. Cell was cultured without any chemical substance in the same condition, and was used as control. Concentrations of the chemical substances were defined to inhibit the growth of the yeast but not lead to death.
After the completion of cultivation, the culture was centrifuged to collect the cells. To the cells, sodium acetate buffer (50 mM sodium acetate, 10 mM EDTA, 1% SDS) was added, and the mixture was shaken at 65° C. for five minutes, followed by returning to room temperature, and obtaining the supernatant, which procedure was repeated two times. To the supernatant, ½ amount of a solution of phenol/chloroform was added, and the mixture was centrifuged to give a supernatant, which was added with an equal amount of chloroform, and the mixture was centrifuged to give a supernatant. To the supernatant, an equal amount of isopropanol containing 0.3 M sodium acetate was added, and the mixture was allowed to stand at room temperature for 30 minutes, after which the mixture was centrifuged to give a sediment of the whole RNAs. Seventy % ethanol was added to the sediment, and the mixture was again centrifuged to give a sediment, which was then dried and dissolved in water. mRNA was isolated from the whole RNAs as followings. In view of the fact that a poly A chain is attached to the 3′ terminus of mRNA, a polynucleotide having a poly T structure which was immobilized on the surface of latex beads was used to trap the mRNA, and then the mRNA was washed and eluted with spine column (Oligotex-dT30<Super>mRNA Purification Kit, Takara). Reverse transcription of the mRNA was conducted with a reverse transcriptase (Super Script II Reverse Transcriptase; catalogue No. 18064-014, GibcoBRL) using fluorescence-labeled nucleotides to give cDNAs that were introduced with Cy3-dUTP or Cy5-dUTP during the reverse transcription.
The labeled cDNAs were dissolved in TE buffer (10 mM Tris-HCl/1 mM EDTA, pH8.0), and the solution was dropped on the DNA chip containing the whole genes of yeast (DNA Chip Research Inc. Japan) so that the cDNAs were hybridized on the DNA chip at 65° C. for over 12 hours. The fluoresces intensity of the DNA chip was read with a scanner, and the ratio relative to the fluorescence intensity resulting from the absence of chemical substance was estimated as the following, which is shown in Tables 1 to 9: [formula]
In the Tables, “Intensity” indicated in the rightmost column is a value of the level of expressed mRNA of each gene in control cells as divided by the average level of the expressions of the whole genes.

## CCCCC[C@H](O)CC(=O)CCc1ccc(O)c(OC)c1 [(13), gingerol]
Gene YAL012W
  level of expressed mRNA in the presence of chemical substance/in its absence: 1.1
Gene YAL014C
  The level of expressed mRNA in the presence of chemical substance/absence: YAL014C: 1.5
Gene YAL017W
  The level of expressed mRNA in the presence of chemical substance/absence: YAL017W: 2.2
Gene YAL018C
  The level of expressed mRNA in the presence of chemical substance/absence: YAL018C: 1.3
Gene YAL038W
  level of expressed mRNA in the presence of chemical substance/in its absence: 1.8
Gene YAL044C
  level of expressed mRNA in the presence of chemical substance/in its absence: 1.1
Gene YAL049C
  The level of expressed mRNA in the presence of chemical substance/absence: YAL049C: 1.6
Gene YAL054C
  level of expressed mRNA in the presence of chemical substance/in its absence: 1.8
Gene YAR047C
  The level of expressed mRNA in the presence of chemical substance/absence: YAR047C: 1.4
Gene YAR064W
  The level of expressed mRNA in the presence of chemical substance/absence: YAR064W: 1.1
Gene YAR071W
  level of expressed mRNA in the presence of chemical substance/in its absence: 0.3
Gene YBL001C
  level of expressed mRNA in the presence of chemical substance/in its absence: 1.0
Gene YBL044W
  The level of expressed mRNA in the presence of chemical substance/absence: YBL044W: 0.7
Gene YBL100C
  The level of expressed mRNA in the presence of chemical substance/absence: YBL100C: 0.9
Gene YBR012C
  The level of expressed mRNA in the presence of chemical substance/absence: YBR012C: 2.1
Gene YBR013C
  The level of expressed mRNA in the presence of chemical substance/absence: YBR013C: 2.0
Gene YBR014C
  level of expressed mRNA in the presence of chemical substance/in its absence: 0.9
Gene YBR023C
  level of expressed mRNA in the presence of chemical substance/in its absence: 0.5
Gene YBR029C
  level of expressed mRNA in the presence of chemical substance/in its absence: 1.7
Gene YBR035C
  level of expressed mRNA in the presence of chemical substance/in its absence: 1.8
Gene YBR050C
  level of expressed mRNA in the presence of chemical substance/in its absence: 1.3
Gene YBR051W
  The level of expressed mRNA in the presence of chemical substance/absence: YBR051W: 1.2
Gene YBR063C
  The level of expressed mRNA in the presence of chemical substance/absence: YBR063C: 1.7
Gene YBR066C
  The level of expressed mRNA in the presence of chemical substance/absence: YBR066C: 0.6
Gene YBR068C
  level of expressed mRNA in the presence of chemical substance/in its absence: 2.2
Gene YBR111C
  level of expressed mRNA in the presence of chemical substance/in its absence: 1.6
Gene YBR124W
  The level of expressed mRNA in the presence of chemical substance/absence: YBR124W: 0.9
Gene YBR126C
  level of expressed mRNA in the presence of chemical substance/in its absence: 2.1
Gene YBR129C
  The level of expressed mRNA in the presence of chemical substance/absence: YBR129C: 1.3
Gene YBR145W
  level of expressed mRNA in the presence of chemical substance/in its absence: 2.0
Gene YBR162C
  The level of expressed mRNA in the presence of chemical substance/absence: YBR162C: 0.7
Gene YBR183W
  level of expressed mRNA in the presence of chemical substance/in its absence: 1.4
Gene YBR222C
  level of expressed mRNA in the presence of chemical substance/in its absence: 1.6
Gene YBR255W
  The level of expressed mRNA in the presence of chemical substance/absence: YBR255W: 1.4
Gene YBR281C
  The level of expressed mRNA in the presence of chemical substance/absence: YBR281C: 1.2
Gene YBR287W
  The level of expressed mRNA in the presence of chemical substance/absence: YBR287W: 3.4
Gene YBR299W
  level of expressed mRNA in the presence of chemical substance/in its absence: 0.7
Gene YCL009C
  level of expressed mRNA in the presence of chemical substance/in its absence: 1.6
Gene YCL042W
  The level of expressed mRNA in the presence of chemical substance/absence: YCL042W: 7.5
Gene YCL044C
  The level of expressed mRNA in the presence of chemical substance/absence: YCL044C: 1.7
Gene YCL056C
  The level of expressed mRNA in the presence of chemical substance/absence: YCL056C: 1.3
Gene YCL064C
  level of expressed mRNA in the presence of chemical substance/in its absence: 1.6
Gene YCR007C
  The level of expressed mRNA in the presence of chemical substance/absence: YCR007C: 1.5
Gene YCR037C
  level of expressed mRNA in the presence of chemical substance/in its absence: 1.3
Gene YCR048W
  level of expressed mRNA in the presence of chemical substance/in its absence: 1.3
Gene YCR098C
  level of expressed mRNA in the presence of chemical substance/in its absence: 1.4
Gene YDL022W
  level of expressed mRNA in the presence of chemical substance/in its absence: 1.5
Gene YDL046W
  The level of expressed mRNA in the presence of chemical substance/absence: YDL046W: 1.5
Gene YDL089W
  The level of expressed mRNA in the presence of chemical substance/absence: YDL089W: 1.9
Gene YDL173W
  The level of expressed mRNA in the presence of chemical substance/absence: YDL173W: 1.7
Gene YDL193W
  The level of expressed mRNA in the presence of chemical substance/absence: YDL193W: 1.4
Gene YDL233W
  The level of expressed mRNA in the presence of chemical substance/absence: YDL233W: 1.8
Gene YDR009W
  level of expressed mRNA in the presence of chemical substance/in its absence: 1.2
Gene YDR019C
  level of expressed mRNA in the presence of chemical substance/in its absence: 1.0
Gene YDR071C
  The level of expressed mRNA in the presence of chemical substance/absence: YDR071C: 1.3
Gene YDR078C
  The level of expressed mRNA in the presence of chemical substance/absence: YDR078C: 1.1
Gene YDR090C
  The level of expressed mRNA in the presence of chemical substance/absence: YDR090C: 0.8
